pIC50: −log10 of the molar value. Calls of active or inactive are those of the source. No cut-off for these calls is given here.
What was measured:
LNCaP [1] = assay: Induction of apoptosis in human LNCaP cells assessed as late apoptotic cells at 100 nM measured for 48 hrs by flow cytometry assay (reference value: 1.29%); assay type: functional
[2] = biological target: T1, Androgen receptor (Homo sapiens) (UniProt P10275); assay: Induction of full length AR degradation in human RWPE-1 cells at 10 uM measured for 24 hrs by Western blot analysis; assay type: cell-based
T1 sequence (whole entry): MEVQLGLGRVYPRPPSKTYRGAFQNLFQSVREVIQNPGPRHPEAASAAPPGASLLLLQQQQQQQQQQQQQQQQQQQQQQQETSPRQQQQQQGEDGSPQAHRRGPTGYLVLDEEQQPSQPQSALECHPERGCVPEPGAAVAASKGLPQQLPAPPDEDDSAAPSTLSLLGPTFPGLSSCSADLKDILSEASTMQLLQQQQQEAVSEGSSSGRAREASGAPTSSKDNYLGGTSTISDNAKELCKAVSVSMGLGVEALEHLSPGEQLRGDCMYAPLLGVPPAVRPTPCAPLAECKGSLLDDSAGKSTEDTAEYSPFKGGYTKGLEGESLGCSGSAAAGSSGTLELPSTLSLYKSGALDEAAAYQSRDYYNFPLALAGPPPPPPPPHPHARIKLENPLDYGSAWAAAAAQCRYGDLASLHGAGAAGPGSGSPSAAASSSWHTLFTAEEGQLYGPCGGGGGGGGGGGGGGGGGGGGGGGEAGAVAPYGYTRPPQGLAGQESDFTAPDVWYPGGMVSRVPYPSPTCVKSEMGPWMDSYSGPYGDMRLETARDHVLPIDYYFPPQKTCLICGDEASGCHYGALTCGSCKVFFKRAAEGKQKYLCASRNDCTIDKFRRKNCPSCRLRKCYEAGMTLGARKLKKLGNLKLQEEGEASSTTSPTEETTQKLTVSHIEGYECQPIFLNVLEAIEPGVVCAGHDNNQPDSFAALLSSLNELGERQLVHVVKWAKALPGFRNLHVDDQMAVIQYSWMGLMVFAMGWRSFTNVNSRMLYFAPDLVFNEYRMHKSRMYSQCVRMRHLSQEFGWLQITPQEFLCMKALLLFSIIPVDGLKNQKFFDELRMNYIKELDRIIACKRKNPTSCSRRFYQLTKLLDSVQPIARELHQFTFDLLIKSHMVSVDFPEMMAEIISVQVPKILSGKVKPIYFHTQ

LNCaP [3] = assay: Induction of cell cycle arrest in human LNCaP cells assessed as accumulation of cells at G2/M phase at 100 to 1000 nM measured for 24 hrs by flow cytometry analysis; assay type: functional, cell-based; conditions: dose 100-1000 nM
LNCaP [4] = assay: Induction of apoptosis in human LNCaP cells assessed as necrotic cells at 1000 nM measured for 48 hrs by flow cytometry assay (reference value: 0.35%); assay type: functional
LNCaP [5] = assay: Induction of apoptosis in human LNCaP cells assessed as early apoptotic cells at 1000 nM measured for 48 hrs by flow cytometry assay (reference value: 1.48%); assay type: functional
LNCaP [6] = assay: Downregulation of AR-regulated TMPRSS2 protein level in human LNCaP cells measured for 48 hrs in presence of AR agonist, R1881 in charcoal stripped serum by Western blot analysis; assay type: functional, cell-based; conditions: dose 300-1000 nM
LNCaP [7] = assay: Induction of apoptosis in human LNCaP cells assessed as viable cells at 1000 nM measured for 48 hrs by flow cytometry assay (reference value: 96.9%); assay type: functional; conditions: read-out: Activity
LNCaP [8] = assay: Cytotoxicity against AR-positive human LNCaP cells assessed as inhibition of cell growth incubated for 5 days in presence of AR agonist, R1881 in charcoal stripped serum by WST-1 assay; assay type: functional, cell-based; conditions: 120 h
CWR22R [9] = assay: Induction of apoptosis in human 22Rv1 cells assessed as viable cells at 100 nM measured for 48 hrs by flow cytometry assay (reference value: 91.3%); assay type: functional; conditions: read-out: Activity
LNCaP [10] = assay: Induction of apoptosis in human LNCaP cells assessed as early apoptotic cells at 100 nM measured for 48 hrs by flow cytometry assay (reference value: 1.48%); assay type: functional
CWR22R [11] = assay: Induction of apoptosis in human 22Rv1 cells assessed as early apoptotic cells at 100 nM measured for 48 hrs by flow cytometry assay (reference value: 4.59%); assay type: functional
LNCaP [12] = assay: Induction of apoptosis in human LNCaP cells assessed as late apoptotic cells at 1000 nM measured for 48 hrs by flow cytometry assay (reference value: 1.29%); assay type: functional
CWR22R [13] = assay: Induction of apoptosis in human 22Rv1 cells assessed as necrotic cells at 100 nM measured for 48 hrs by flow cytometry assay (reference value: 0.19%); assay type: functional
[14] = Toxicity in BALB/c nude mouse xenografted with human LNCaP cells assessed as animal weight loss at 5 mg/kg, ip administered once every 4th day for 3 weeks; assay type: organism-based; conditions: in vivo, 504 h
CWR22R [15] = assay: Induction of apoptosis in human 22Rv1 cells assessed as late apoptotic cells at 100 nM measured for 48 hrs by flow cytometry assay (reference value: 3.96%); assay type: functional
LNCaP [16] = assay: Induction of apoptosis in human LNCaP cells assessed as increase in PARP level at 1 uM measured after 48 hrs by Western blot analysis; assay type: functional, cell-based
CWR22R [17] = assay: Induction of cell cycle arrest in human 22Rv1 cells assessed as accumulation of cells at G2/M phase at 100 to 1000 nM measured for 24 hrs by flow cytometry analysis; assay type: functional, cell-based; conditions: dose 100-1000 nM
[18] = Cytotoxicity against human RWPE-1 cells assessed as inhibition of cell growth incubated for 5 days by CCK-8 assay; assay type: toxicity, cell-based
[19] = Drug uptake in human 22Rv1 cells at 1 uM measured at 1 to 24 hrs by LC-MS/MS analysis; assay type: ADME, cell-based; conditions: cwr22r, time 1-24 hrs
CWR22R [20] = assay: Induction of apoptosis in human 22Rv1 cells assessed as increase in PARP level at 1 uM measured after 48 hrs by Western blot analysis; assay type: functional, cell-based
CWR22R [21] = assay: Induction of apoptosis in human 22Rv1 cells assessed as early apoptotic cells at 1000 nM measured for 48 hrs by flow cytometry assay (reference value: 4.59%); assay type: functional
LNCaP [22] = assay: Downregulation of AR-regulated FKBP5 protein level in human LNCaP cells measured for 48 hrs in presence of AR agonist, R1881 in charcoal stripped serum by Western blot analysis; assay type: functional, cell-based; conditions: dose 300-1000 nM
LNCaP [23] = assay: Induction of apoptosis in human LNCaP cells assessed as increase in caspase-3 level at 1 uM measured after 48 hrs by Western blot analysis; assay type: functional, cell-based
[24] = system: Androgen receptor (Homo sapiens), P10275 [UNDEFINED MUTATION]; assay: Induction of AR-V7 degradation in human 22Rv1 cells measured upto 24 hrs by Western blot analysis; assay type: cell-based; conditions: dose 1000.0 nM
LNCaP [25] = assay: Induction of apoptosis in human LNCaP cells assessed as viable cells at 100 nM measured for 48 hrs by flow cytometry assay (reference value: 96.9%); assay type: functional; conditions: read-out: Activity
[26] = Toxicity in BALB/c nude mouse xenografted with human 22Rv1 cells assessed as animal weight loss at 5 mg/kg, ip administered once every 4th day for 3 weeks; assay type: organism-based, CWR22R; conditions: in vivo, 504 h
LNCaP [27] = assay: Induction of apoptosis in human LNCaP cells assessed as necrotic cells at 100 nM measured for 48 hrs by flow cytometry assay (reference value: 0.35%); assay type: functional
CWR22R [28] = assay: Cytotoxicity against human 22Rv1 cells assessed as inhibition of cell growth incubated for 5 days in presence of AR agonist, R1881 by WST-1 assay; assay type: functional, cell-based; conditions: 22Rv1, 120 h
CWR22R [29] = assay: Induction of apoptosis in human 22Rv1 cells assessed as viable cells at 1000 nM measured for 48 hrs by flow cytometry assay (reference value: 91.3%); assay type: functional; conditions: read-out: Activity
[30] = Drug uptake in human 22Rv1 cells measured after 12 hrs by LC-MS/MS analysis; assay type: ADME, cell-based; conditions: cwr22r, 1 µM
CWR22R [31] = assay: Induction of apoptosis in human 22Rv1 cells assessed as necrotic cells at 1000 nM measured for 48 hrs by flow cytometry assay (reference value: 0.19%); assay type: functional
CWR22R [32] = assay: Induction of apoptosis in human 22Rv1 cells assessed as late apoptotic cells at 1000 nM measured for 48 hrs by flow cytometry assay (reference value: 3.96%); assay type: functional
LNCaP [33] = assay: Downregulation of AR-regulated PSA protein level in human LNCaP cells measured for 48 hrs in presence of AR agonist, R1881 in charcoal stripped serum by Western blot analysis; assay type: functional, cell-based; conditions: dose 300-1000 nM
CWR22R [34] = assay: Induction of apoptosis in human 22Rv1 cells assessed as increase in caspase-3 level at 1 uM measured after 48 hrs by Western blot analysis; assay type: functional, cell-based
[35] = biological target: T1, Androgen receptor (Homo sapiens); assay: Induction of full length AR degradation in human LNCaP cells assessed as maximum degradation at 100 nM measured after 12 hrs relative to control; assay type: cell-based
CWR22R [36] = assay: Antitumor activity against human 22Rv1 cells xenografted in BALB/c nude mouse assessed as downregulation of AR-FL level at 2.5 mg/kg, ip administered once every 4th day for 3 weeks; assay type: functional, organism-based
LNCaP [37] = assay: animal or person; conditions: Mus musculus, po, 504 h, read-out: TGI
Description: Antitumor activity against human LNCaP cells xenografted in BALB/c nude mouse assessed as inhibition of tumor growth at 5 mg/kg, po administered once every 4th day for 3 weeks

CWR22R [38] = assay: Antitumor activity against human 22Rv1 cells xenografted in BALB/c nude mouse assessed as downregulation of AR-V7 level at 2.5 mg/kg, ip administered once every 4th day for 3 weeks; assay type: functional, organism-based

For CC(C)c1cc(-c2n[nH]c(=O)n2-c2ccc(CN3CCN(CC4CCN(CC5CCN(c6ncc(C(=O)N[C@H]7CC[C@H](Oc8ccc(C#N)c(Cl)c8)CC7)cn6)CC5)CC4)CC3)cc2)c(O)cc1O, which Activity (LNCaP [1]) is on record?
Its Activity is 3.71%.

What about the Activity [2] of the same molecule?
Its Activity is “inactive”.

And the Activity (LNCaP [3])?
The Activity was “Active”.

What about the Activity (LNCaP [4]) of the same molecule?
The Activity was 1.13%.

What about the Activity (LNCaP [5]) of the same molecule?
The Activity was 4.87%.

And the Activity (LNCaP [6])?
Its Activity is “Dose-Dependent Effect”.

And the viability at 1 µM (LNCaP [7])?
Its viability at 1 µM is 87.1%.

And the pIC50 (LNCaP [8])?
The pIC50 was 7.48.

What about the viability at 0.1 µM (CWR22R [9]) of the same molecule?
The viability at 0.1 µM was 80.1%.

And the Activity (LNCaP [10])?
Its Activity is 4.05%.

What about the Activity (CWR22R [11]) of the same molecule?
The Activity was 6.96%.

And the Activity (LNCaP [12])?
Its Activity is 6.91%.

And the Activity (CWR22R [13])?
The Activity was 0.066%.

What about the Activity [14] of the same molecule?
The Activity was 10%.

What about the Activity (CWR22R [15]) of the same molecule?
Its Activity is 12.8%.

What about the Activity (LNCaP [16]) of the same molecule?
The Activity was “Active”.

What about the Activity (CWR22R [17]) of the same molecule?
The Activity was “Active”.

And the IC50 at 5 days [18]?
Its IC50 at 5 days is 241 nM.

What about the Drug uptake [19] of the same molecule?
Its Drug uptake is “Active”.

What about the Activity (CWR22R [20]) of the same molecule?
The Activity was “Active”.

What about the Activity (CWR22R [21]) of the same molecule?
The Activity was 13.5%.

What about the Activity (LNCaP [22]) of the same molecule?
The Activity was “Dose-Dependent Effect”.

What about the Activity (LNCaP [23]) of the same molecule?
The Activity was “Active”.

What about the Activity [24] of the same molecule?
Its Activity is “Dose-Dependent Effect”.

What about the viability at 0.1 µM (LNCaP [25]) of the same molecule?
The viability at 0.1 µM was 91.9%.

And the Activity [26]?
The Activity was ~ 10%.

And the Activity (LNCaP [27])?
Its Activity is 0.32%.

And the pIC50 (CWR22R [28])?
Its pIC50 is 7.57.

What about the viability at 1 µM (CWR22R [29]) of the same molecule?
Its viability at 1 µM is 70.3%.

What about the Drug uptake [30] of the same molecule?
Its Drug uptake is “Dose-Dependent Effect”.

And the Activity (CWR22R [31])?
Its Activity is 0.085%.

And the Activity (CWR22R [32])?
Its Activity is 16.1%.

And the Activity (LNCaP [33])?
The Activity was “Dose-Dependent Effect”.

And the Activity (CWR22R [34])?
Its Activity is “Active”.

What about the Activity [35] of the same molecule?
Its Activity is over 90%.

What does the source list for CNC(=O)c1ccc(N2C(=S)N(c3ccc(C#N)c(C(F)(F)F)c3)C(=O)C2(C)C)cc1F [ENZALUTAMIDE]?
Activity (CWR22R [36]): inactive; pIC50 (LNCaP [8]): 7.28; inhibition in vivo at 5 mg/kg (LNCaP [37]): 50%; Activity [14]: 10%; pIC50 (CWR22R [28]): < 6.00; Activity (CWR22R [38]): inactive

Source: ChEMBL document CHEMBL5380834, “Design, Synthesis, and Biological Evaluation of Androgen Receptor (AR) Antagonist-Heat Shock Protein 90 (Hsp90) Inhibitor Conjugates for Targeted Therapy of Castration-Resistant Prostate Cancer” (J Med Chem, 2023)
